Consider 34 molecules from US20150038527A1, “FUROPYRIDINE DERIVATIVES” (Merck Patent GmbH, priority 2012, published 2015).

Molecules are shown by their SMILES.

This test addresses T1, SYK (Homo sapiens, UniProt P43405).
T1 construct: 2.5 nM SYK, 400 nM Biotin-Aha-Aha-KEDPDYEWPSAKK and 10 μM ATP
The test is described as follows: SYK Flash Plate Assay (enzyme assay). The test is classed as biochemical. How it is done: The kinase assay is performed either as 384-well Flashplate assay (for e.g. Topcount measurement) or as 384-well Image-Flashplate assay (for LEADseeker measurement).
2.5 nM SYK, 400 nM Biotin-Aha-Aha-KEDPDYEWPSAKK and 10 μM ATP (spiked with 0.3 μCi 33P-ATP/well) are incubated in a total volume of 50 μl (60 mM Hepes, 10 mM MgCl2, 1.2 mM Dithiothreitol, 0.02% Brij35, 0.1% BSA, pH 7.5) with or without test compound for 1 hours at 30° C. The reaction is stopped with 25 μl 200 mM EDTA. After 30 Min at 30° C. the liquid is removed and each well washed thrice with 100 μl 0.9% sodium chloride solution. Non-specific reaction is determined in presence of 0.1 μM Staurosporine. Radioactivity is measured with Topcount (when using Flashplates) or with LEADseeker (when using Image-Flashplates) respectively. Results (e.g. IC50-values) are calculated with program tools provided by the IT-department (e.g. Symyx Assay Explorer, Genedata Screener).
Molecule `COC[C@H](N)CNC(=O)c1cccc(-c2ccnc3cc(-c4cc(OC)c(OC)c(OC)c4)oc23)c1` [Compound A5, N—((R)-2-amino-3-methoxy-propyl)-3-[2-(3,4,5-trimethoxy-phenyl)-furo[3,2-b]pyridin-7-yl]-benzamide] gave a concentration for half-maximal inhibition (IC50) of 300 to 3000 nM.

In turn, `COc1cc(-c2cc3nccc(NC(=O)NC4CCCCC4N)c3o2)cc(OC)c1OC` (stereo not shown) [Compound A75, 1-(2-amino-cyclohexyl)-3-[2-(3,4,5-trimethoxy-phenyl)-furo[3,2-b]pyridin-7-yl]-urea] had an IC50 of 3000 to 50000 nM.

`Cc1cc2[nH]ncc2cc1-c1cc2nccc(-c3cccc(C(=O)N[C@@H]4CCCC[C@@H]4N)c3)c2o1` [Compound A45, N-((1R,2S)-2-amino-cyclohexyl)-3-[2-(6-methyl-1H-indazol-5-yl)-furo[3,2-b]pyridin-7-yl]-benzamide]: the IC50 was 300 to 3000 nM.

`CCc1ccc(OC)cc1-c1cc2nccc(-c3cccc(C(=O)N[C@@H]4CCCC[C@@H]4N)c3)c2o1` [Compound A42, N-((1R,2S)-2-amino-cyclohexyl)-3-[2-(2-ethyl-5-methoxy-phenyl)-furo[3,2-b]pyridin-7-yl]-benzamide] returned an IC50 of 3000 to 50000 nM.

`COc1cc(-c2cc3nccc(NCC4CCCNC4)c3o2)cc(OC)c1OC` (stereo not shown) [Compound A2, Piperidin-3-ylmethyl-[2-(3,4,5-trimethoxy-phenyl)-furo[3,2-b]pyridin-7-yl]-amine]: the IC50 was in the range of 3000 to 50000 nM.

For the molecule `COc1cc(-c2cc3nccc(-c4cc(C)cc(C(=O)NCCN)c4)c3o2)cc(OC)c1OC` [Compound A56, N-(2-amino-ethyl)-3-methyl-5-[2-(3,4,5-trimethoxy-phenyl)-furo[3,2-b]pyridin-7-yl]-benzamide], the IC50 lay in the range of 300 to 3000 nM.

As for `COc1cc(-c2cc3nccc(-c4cccc(C(=O)N[C@H]5C[C@@H](N)C5)c4)c3o2)cc(OC)c1OC` [Compound A27, N-(3-amino-cyclobutyl)-3-[2-(3,4,5-trimethoxy-phenyl)-furo[3,2-b]pyridin-7-yl]-benzamide], the concentration for half-maximal inhibition (IC50) was 300 to 3000 nM.

In turn, `COc1ccc(C(N)=O)cc1-c1cc2nccc(-c3cc[nH]c3)c2o1` [Compound A94, 4-methoxy-3-[7-(1H-pyrrol-3-yl)-furo[3,2-b]pyridin-2-yl]-benzamide] showed an IC50 of 100 to 300 nM.

`COc1cc(-c2cc3nccc(-c4cccc(C(=O)N[C@H]5C[C@H](N)C5)c4)c3o2)cc(OC)c1OC` [Compound A24, N-(3-amino-cyclobutyl)-3-[2-(3,4,5-trimethoxy-phenyl)-furo[3,2-b]pyridin-7-yl]-benzamide] returned an IC50 of 300 to 3000 nM.

Molecule `COc1cc(-c2cc3nccc(-c4ccc(O)nc4)c3o2)cc(OC)c1OC` [Compound A38, 5-[2-(3,4,5-trimethoxy-phenyl)-furo[3,2-b]pyridin-7-yl]-pyridin-2-ol] displayed an IC50 of 300 to 3000 nM.

Turning to `COc1ccc(C(N)=O)cc1-c1cc2nccc(-c3cccc(C(=O)N[C@@H]4CCCC[C@@H]4N)c3)c2o1` [Compound A46, 3-{7-[3-((1R,2S)-2-amino-cyclohexylcarbamoyl)-phenyl]-furo[3,2-b]pyridin-2-yl}-4-methoxy-benzamide], the half-maximal inhibitory concentration (IC50) was 300 to 3000 nM.

The molecule `COc1ccc(C(N)=O)cc1-c1cc2nccc(-c3c(OC)cccc3OC)c2o1` [Compound A62, 3-[7-(2,6-dimethoxy-phenyl)-furo[3,2-b]pyridin-2-yl]-4-methoxy-benzamide] registered an IC50 of 300 to 3000 nM.

Turning to `COc1ccc(C(N)=O)cc1-c1cc2nccc(-c3cc4[nH]cnc4cc3OC)c2o1` [Compound A89, 4-Methoxy-3-[7-(6-methoxy-3H-benzoimidazol-5-yl)-furo[3,2-b]pyridin-2-yl]-benzamide], the IC50 fell in the range of 300 to 3000 nM.

In turn, `COc1cc(OCCN)ccc1-c1cc2nccc(-c3ccc4[nH]cnc4c3)c2o1` [Compound A18, 2-{4-[7-(1H-benzoimidazol-5-yl)-furo[3,2-b]pyridin-2-yl]-3-methoxy-phenoxy}-ethylamine] had an IC50 of 300 to 3000 nM.

For `COc1cc(-c2cc3nccc(-c4cccc(C(=O)N[C@@H]5CCC[C@H]5O)c4)c3o2)cc(OC)c1OC` [Compound A12, N-((1R,2R)-2-hydroxy-cyclopentyl)-3-[2-(3,4,5-trimethoxy-phenyl)-furo[3,2-b]pyridin-7-yl]-benzamide], the IC50 lay in the range of 300 to 3000 nM.

Regarding `COc1ccc(C(N)=O)cc1-c1cc2nccc(-c3ccnc(N[C@H]4CCCC[C@H]4N)c3)c2o1` [Compound A96, 3-{7-[2-((1S,2R)-2-amino-cyclohexylamino)-pyridin-4-yl]-furo[3,2-b]pyridin-2-yl}-4-methoxy-benzamide], the IC50 is less than 100 nM.

`COc1ccc(C(N)=O)cc1-c1cc2nccc(-c3ccc4[nH]cnc4c3)c2o1` [Compound A9, 3-[7-(1H-benzoimidazol-5-yl)-furo[3,2-b]pyridin-2-yl]-4-methoxy-benzamide] yielded a half-maximal inhibitory concentration (IC50) of less than 100 nM.

Molecule `COc1cc(-c2cc3nccc(-c4ccnc(O)c4)c3o2)cc(OC)c1OC` [Compound A39, 4-[2-(3,4,5-trimethoxy-phenyl)-furo[3,2-b]pyridin-7-yl]-pyridin-2-ol] gave an IC50 of 300 to 3000 nM.

As for `COc1ccc(C(N)=O)cc1-c1cc2nccc(-c3ccc(C(=O)NCCN)cc3OC)c2o1` [Compound A95, N-(2-aminoethyl)-4-[2-(5-carbamoyl-2-methoxy-phenyl)furo[3,2-b]pyridin-7-yl]-3-methoxy-benzamide], the IC50 lay in the range of 100 to 300 nM.

Regarding `COCC(O)CNC(=O)c1ccc(OC)c(-c2cc3nccc(-c4c(OC)cccc4OC)c3o2)c1` (stereo not shown) [Compound A69, 3-[7-(2,6-dimethoxy-phenyl)-furo[3,2-b]pyridin-2-yl]-N-(2-hydroxy-3-methoxypropyl)-4-methoxy-benzamide], the IC50 is 300 to 3000 nM.

As for `COc1cc(-c2cc3nccc(-c4cc(OCCN)ccc4F)c3o2)cc(OC)c1OC` [Compound A44, 2-{4-fluoro-3-[2-(3,4,5-trimethoxy-phenyl)-furo[3,2-b]pyridin-7-yl]-phenoxy}-ethylamine], the IC50 was in the range of 300 to 3000 nM.

As to `COc1ccc(C(N)=O)cc1-c1cc2nccc(-c3cc([C@@H](C)N)ccc3OC)c2o1` [Compound A1, 3-{7-[5-((R)-1-Amino-ethyl)-2-methoxy-phenyl]-furo[3,2-b]pyridin-2-yl}-4-methoxy-benzamide], the IC50 was 100 to 300 nM.

In the case of `COc1cc(-c2cc3nccc(-c4cnc[nH]4)c3o2)cc(OC)c1OC` [Compound A91, 7-(3H-imidazol-4-yl)-2-(3,4,5-trimethoxy-phenyl)-furo[3,2-b]pyridine], the IC50 fell in the range of 100 to 300 nM.

In turn, `COc1cc(-c2cc3ncc(F)c(-c4cccc(C(=O)N[C@@H]5CCCC[C@@H]5N)c4)c3o2)cc(OC)c1OC` [Compound A47, N-((1R,2S)-2-amino-cyclohexyl)-3-[6-fluoro-2-(3,4,5-trimethoxy-phenyl)furo[3,2-b]pyridin-7-yl]-benzamide] showed a half-inhibitory concentration (IC50) of 300 to 3000 nM.

Regarding `COc1ccc(-c2ncon2)cc1-c1cc2nccc(-c3cc[nH]n3)c2o1` [Compound A92, 2-(2-methoxy-5-[1,2,4]oxadiazol-3-yl-phenyl)-7-(1H-pyrazol-3-yl)-furo[3,2-b]pyridine], the half-inhibitory concentration (IC50) is less than 100 nM.

Molecule `COc1ccc(C(N)=O)cc1-c1cc2nccc(-c3c(OC)cncc3OC)c2o1` [Compound A104, 3-[7-(3,5-dimethoxy-pyridin-4-yl)-furo[3,2-b]pyridin-2-yl]-4-methoxybenzamide] returned an IC50 of 100 to 300 nM.

In turn, `COc1cc(-c2cc3nccc(-c4cc5cn[nH]c5cc4C)c3o2)cc(OC)c1OC` [Compound A13, 7-(6-methyl-1H-indazol-5-yl)-2-(3,4,5-trimethoxy-phenyl)-furo[3,2-b]pyridine] showed an IC50 of 300 to 3000 nM.

In the case of `COc1cc(-c2cc3nccc(C(N)=O)c3o2)cc(OC)c1OC` [Compound A98, 2-(3,4,5-trimethoxy-phenyl)-furo[3,2-b]pyridine-7-carboxylic acid amide], the IC50 was 300 to 3000 nM.

`COc1cc(-c2cc3nccc(-c4cc[nH]c4)c3o2)cc(OC)c1OC` [Compound A83, 7-(1H-pyrrol-3-yl)-2-(3,4,5-trimethoxy-phenyl)-furo[3,2-b]pyridine]: the IC50 was less than 100 nM.

Take `COc1ccc(Cl)c(-c2cc3nccc(-c4cccc(C(=O)N[C@@H]5CCCC[C@@H]5N)c4)c3o2)c1` [Compound A25, N-((1R,2S)-2-amino-cyclohexyl)-3-[2-(2-chloro-5-methoxy-phenyl)-furo[3,2-b]pyridin-7-yl]-benzamide]: the IC50 is 300 to 3000 nM.

The molecule `COc1ccc([C@@H](C)N)cc1-c1ccnc2cc(-c3cc(OC)c(OC)c(OC)c3)oc12` [Compound A100, (R)-1-{4-methoxy-3-[2-(3,4,5-trimethoxy-phenyl)-furo[3,2-b]pyridin-7-yl]-phenyl}-ethylamine] had a 50% inhibitory concentration (IC50) of 300 to 3000 nM.

In the case of `COc1ccc(CNCCN)cc1-c1ccnc2cc(-c3cc(OC)c(OC)c(OC)c3)oc12` [Compound A4, N1-{4-methoxy-3-[2-(3,4,5-trimethoxy-phenyl)-furo[3,2-b]pyridin-7-yl]-benzyl}-ethane-1,2-diamine], the concentration for half-maximal inhibition (IC50) fell in the range of 300 to 3000 nM.

For `CCc1ccc(OC)c(-c2cc3nccc(-c4ccc5[nH]cnc5c4)c3o2)c1` [Compound A41, 7-(1H-benzoimidazol-5-yl)-2-(5-ethyl-2-methoxy-phenyl)-furo[3,2-b]pyridine], the IC50 fell in the range of 300 to 3000 nM.

`COc1cc(-c2cc3nccc(N=[N+]=[N-])c3o2)cc(OC)c1OC` [Compound A86, 7-azido-2-(3,4,5-trimethoxy-phenyl)-furo[3,2-b]pyridine]: the IC50 fell in the range of 3000 to 50000 nM.

The term IC50 denotes the concentration that gives 50% inhibition. Read a high IC50 as a need for much substance.
